This is an account of results in PMC9238401, “Peptide Conjugates Derived from flg15, Pep13, and PIP1 That Are Active against Plant-Pathogenic Bacteria and Trigger Plant Defense Responses” (Applied and Environmental Microbiology, 2022).

Residues, ends and D or L forms follow the SMILES beside them. *: point of attachment. Butyryl = CCCC(=O)*

One data set has as its system horse erythrocytes. The note with it: TRIS buffer pH 7.2, 1 h, 37°C, absorbance 540 nm, relative to melittin 100 μM, ± confidence interval (α = 0.05). Here is the method:
The toxicity of peptide conjugates to eukaryotic cells was determined as the ability to lyse erythrocytes (Table SB).
The hemolytic activity of the compounds was evaluated by determining hemoglobin release from erythrocyte suspensions of horse blood (5% vol/vol) (Oxoid) as previously described ([45]). Blood was centrifuged at 6000g for 5 min, washed three times with TRIS buffer (10 mM TRIS, 150 mM NaCl, pH 7.2) and diluted 10 times. Compounds were solubilized in TRIS buffer at 750, 500, 300, and 100 μM and mixed with horse erythrocytes (1:1 vol/vol). The mixture was incubated with continuous shaking for 1 h at 37°C. Then, the tubes were centrifuged at 3500g for 10 min, 80-μL aliquots of the supernatant were transferred to 100-well microplates (Bioscreen) and diluted with 80 μL water, and the absorbance measured at 540 nm (Bioscreen). […] The percentage of hemolysis (H) was calculated using the equation H = 100 × ([Op − Ob]/[Om − Ob]), where Op is the density for a given compound concentration, Ob is that for the buffer, and Om is that for the melittin positive control.

A further data set relates to tobacco leaves. Put plainly: Effect of peptide infiltration on tobacco leaves (phytotoxicity). The format is in vivo. The note with it: 100 μL infiltrated into mesophyll, lesion diameter 48 h after infiltration, at least three leaves; ± confidence interval (α = 0.05). Here is the method: Peptide conjugates were also assayed for their toxicity in tobacco leaves (Fig. 3, Table SC). After 48 h of infiltration, melittin caused a necrotic area of 0.70 and 2.17 cm in diameter at 50 and 250 μM, respectively. The monomers were not phytotoxic at those concentrations; all of them led to lesions of ≤1.2 cm at 250 μM. All peptide conjugates were also less phytotoxic than melittin, causing necrotic lesions between 0.26 and 1.67 cm in diameter at 250 μM. In particular, 15 of the 30 conjugates led to a necrotic area of <1 cm at this concentration. In general, sequences incorporating BP13 were among the most phytotoxic.
Peptide conjugates were evaluated for their effect on infiltration on tobacco leaves as described previously ([41]). Peptide solutions of 50, 150, and 250 μM were infiltrated (100 μL) into the mesophylls of fully expanded tobacco leaves. Infiltrations were carried out in a single leaf, and for each peptide and dose, at least three leaves randomly distributed in different plants were inoculated. Control infiltrations with water (negative control) or melittin (positive control) at the same molar concentration were performed. The appearance of symptoms on the leaves was followed for 48 h after infiltration and measured as lesion diameter.

The nature of data set [1]: HPLC retention time as indicator of relative hydrophobicity. The note with it: chromatographic, Kromasil 100 C18 (4.6 mm × 40 mm, 3 μm), linear gradient 2 to 100% B over 12 min, 1 mL/min; A 0.1% aqueous TFA, B 0.1% TFA in CH3CN; used as indicator of relative hydrophobicity. Format: physicochemical. Here is the method:
The parameters related to the structure of the peptide conjugates (sequence, charge, hydrophobic ratio [HR], and HPLC retention time), as well as their physicochemical properties (grand average hydropathicity [GRAVY] and hydrophobic moment [<μH>]) obtained from the online programs ProtParam (Expasy server) and HeliQuest are included in Table 1.
Peptides were analyzed under standard analytical HPLC conditions. Method A: peptides were analyzed with a Dionex liquid chromatography instrument composed of a UV/Vis Dionex UVD170U detector, a P680 Dionex pump, an ASI-100 Dionex automatic injector, and Chromeleon 6.60 software. Detection was performed at a wavelength of 220 nm. Solvent A was 0.1% aqueous trifluoroacetic acid (TFA), and solvent B was 0.1% TFA in CH3CN. Analyses were carried out with a Kromasil 100 C18 (4.6 mm × 40 mm, 3 μm) column with a linear gradient of 2 to 100% B over 7 min at a flow rate of 1 mL/min. Method B: peptides were analyzed with a 1260 Infinity II liquid chromatography instrument (Agilent Technologies) composed of a diode array detector HS, a quaternary pump VL, a 1260 vial sampler, and OpenLab CDS ChemStation software. Analyses were carried out with a Kromasil 100 C18 (4.6 mm × 40 mm, 3 μm) column with a linear gradient of 2 to 100% B over 12 min at a flow rate of 1 mL/min.

Data set [2] concerns Xanthomonas axonopodis pv. vesicatoria 2133-2. The note with it: TSB, 25°C, 48 h, OD 600 nm (Bioscreen C), three replicates, experiment repeated twice; MIC given as range. The source says:
The corresponding monomers (flg15, BP13, Pep13, PIP1, BP16, BP100, BP143, BP387, BP475, and KSL-W) were included for comparison.
(§1) The following plant-pathogenic bacterial strains were used: Erwinia amylovora PMV6076 (Institut National de la Recherche Agronomique, Angers, France), Pseudomonas syringae pv. syringae EPS94 (Institut de Tecnologia Agroalimentària, University of Girona, Spain), Xanthomonas axonopodis pv. vesicatoria 2133-2, X. axonopodis pv. vesicatoria Xav206 (Xav) (D. F. Ritchie, Department of Plant Pathology, North Carolina State University), Pseudomonas syringae pv. actinidiae Psa3700.1.1, Xanthomonas fragariae Xf349-9A (Instituto Valenciano de Investigaciones Agrarias, Valencia, Spain), and Xanthomonas arboricola pv. pruni CFBP5563 (Collection Française de Bactéries Associées aux Plantes, Angers, France). All bacteria except for X. fragariae were stored in Luria Bertani (LB) broth supplemented with glycerol (20%) and maintained at −80°C. For X. fragariae, medium B ([80]) was used instead of LB. E. amylovora, X. arboricola pv. pruni, P. syringae pv. syringae, and P. syringae pv. actinidiae were scraped from the agar medium after growing for 24 h at 25°C, and X. axonopodis pv. vesicatoria and X. fragariae, after growing for 48 h at 25°C. The cell material was suspended in sterile water to obtain a suspension of 10^8 CFU mL^−1.
(§2) Lyophilized peptides were solubilized in sterile Milli-Q water to a final concentration of 1 mM and filter-sterilized through a 0.22-μm pore filter. […] Then, 20 μL of each dilution were mixed in a microtiter plate well with 20 μL of the corresponding suspension of the bacterial indicator, 160 μL of Trypticase soy broth (TSB) (bioMérieux, France) to a total volume of 200 μL. Three replicates for each combination of strain, compound, and concentration were used. Microbial growth was determined by optical density measurement at 600 nm (Bioscreen C; Labsystem, Helsinki, Finland). Microplates were incubated at 25°C with 20 s of shaking before hourly absorbance measurement for 48 h. The experiment was repeated twice. The MIC was taken as the lowest compound concentration with no growth at the end of the experiment.

For data set [3], the system named is Pseudomonas syringae pv. syringae EPS94. Put plainly: In vitro growth inhibition (MIC). The format is cell-based. Conditions: TSB, 25°C, 48 h, OD 600 nm (Bioscreen C), three replicates, experiment repeated twice; MIC given as range. Here is the method:
(§3) Peptide conjugates were tested for in vitro growth inhibition of the plant-pathogenic bacteria E. amylovora PMV6076, Xanthomonas arboricola pv. pruni CFBP5563, X. fragariae Xf349-9A, X. axonopodis pv. vesicatoria 2133-2, P. syringae pv. actinidiae Psa3700.1.1, and P. syringae pv. syringae EPS94 (Fig. 1, Table SA). The corresponding monomers (flg15, BP13, Pep13, PIP1, BP16, BP100, BP143, BP387, BP475, and KSL-W) were included for comparison.
as §1, §2

In data set [4] the test system is Xanthomonas fragariae Xf349-9A. Description: In vitro growth inhibition (MIC). The note with it: TSB, 25°C, 48 h, OD 600 nm (Bioscreen C), three replicates, experiment repeated twice; MIC given as range. The format is cell-based. Here is the method:
as §3, §1, §2

The subject of data set [5] is Pseudomonas syringae pv. actinidiae Psa3700.1.1. Description: In vitro growth inhibition (MIC). The format is cell-based. The note with it: TSB, 25°C, 48 h, OD 600 nm (Bioscreen C), three replicates, experiment repeated twice; MIC given as range. Here is the method: as §3, §1, §2
Data set [6] concerns Erwinia amylovora PMV6076. Description: In vitro growth inhibition (MIC). The format is cell-based. Conditions: TSB, 25°C, 48 h, OD 600 nm (Bioscreen C), three replicates, experiment repeated twice; MIC = lowest concentration with no growth, given as range. Here is the method:
as §3, §1, §2

The test system of data set [7] is Xanthomonas arboricola pv. pruni CFBP5563. Description: In vitro growth inhibition (MIC). Format: cell-based. Conditions: TSB, 25°C, 48 h, OD 600 nm (Bioscreen C), three replicates, experiment repeated twice; MIC given as range. Here is the method: as §3, §1, §2

“KKLFKKILKKL-RINSAKDDAAGLQIA-OH [BP16-flg15, peptide conjugate, BP16 at N-terminus, flg15 at C-terminus]”: in the data set with horse erythrocytes, the “Percent hemolysis at 50 μM” value was 0 ± 0.3%, the “Percent hemolysis at 150 μM” value is recorded as 1 ± 0.1%, the “Percent hemolysis at 250 μM” value is listed as 0 ± 0.6% and the “Percent hemolysis at 375 μM” value came to 1 ± 0.5%. Further, in the data set on tobacco leaves, the “Size of the lesions in infiltrated tobacco leaves at 50 μM” value (“Size of the lesions … at 50 μM” below) came out at 0 ± 0 cm, the “Size of the lesions in infiltrated tobacco leaves at 150 μM” value (“Size of the lesions … at 150 μM” for short) is recorded as 0.31 ± 0.10 cm and the “Size of the lesions in infiltrated tobacco leaves at 250 μM” value (shortened to “Size of the lesions … at 250 μM”) was determined as 0.30 ± 0.09 cm. The “tR (min), HPLC retention time (method B)” value in data set [1] came out at 4.59 min. Further, the “MIC, Xav” value in data set [2] is 3.1 to 6.2 µM. Also, in [3], the “MIC, Pss” value was 12.5 to 25 µM. The “MIC, Xf” value in [4] fell in the range of 12.5 to 25 µM. The “MIC, Psa” value in data set [5] is 12.5 to 25 µM. Further, the “MIC, Ea” value in data set [6] is above 50 µM. Besides, the “MIC, Xap” value in data set [7] is 25 to 50 µM.

For the molecule “KKLFKKILKYL-RINSAKDDAAGLQIA-OH [BP100-flg15, peptide conjugate, BP100 at N-terminus, flg15 at C-terminus]”, in the data set on horse erythrocytes, the “Percent hemolysis at 50 μM” value is reported as 1 ± 0.9%, the “Percent hemolysis at 150 μM” value was determined as 1 ± 0.8%, the “Percent hemolysis at 250 μM” value is reported as 3 ± 0.0% and the “Percent hemolysis at 375 μM” value was determined as 6 ± 1.6%. In the data set with tobacco leaves, the “Size of the lesions … at 50 μM” value was found to be 0.10 ± 0.12 cm, the “Size of the lesions … at 150 μM” value was found to be 0.28 ± 0.14 cm and the “Size of the lesions … at 250 μM” value is on record as 0.36 ± 0.13 cm. The “tR (min), HPLC retention time (method B)” value in [1] is reported as 4.96 min. Also, in data set [2], the “MIC, Xav” value is 3.1 to 6.2 µM. Moreover, the “MIC, Pss” value in data set [3] is 3.1 to 6.2 µM. Moreover, the “MIC, Xf” value in [4] lay within 6.2 to 12.5 µM. Besides, the “MIC, Psa” value in data set [5] was in the range of 1.6 to 3.1 µM. Moreover, the “MIC, Ea” value in data set [6] is 6.2 to 12.5 µM. In addition, the “MIC, Xap” value in [7] was 1.6 to 3.1 µM.

For “RINSAKDDAAGLQIA-KKLFKKILKYL-NH2 [flg15-BP100, peptide conjugate, flg15 at N-terminus, BP100 at C-terminus]”, in the data set on horse erythrocytes, the “Percent hemolysis at 50 μM” value turned out to be 48 ± 4.1%, the “Percent hemolysis at 150 μM” value is given as 52 ± 4.3%, the “Percent hemolysis at 250 μM” value is reported as 63 ± 2.4% and the “Percent hemolysis at 375 μM” value stood at 66 ± 9.2%. In the data set with tobacco leaves, the “Size of the lesions … at 50 μM” value is recorded as 0.46 ± 0.10 cm, the “Size of the lesions … at 150 μM” value is recorded as 0.80 ± 0.22 cm and the “Size of the lesions … at 250 μM” value turned out to be 1.02 ± 0.24 cm. Besides, the “tR (min), HPLC retention time (method B)” value in data set [1] was 6.29 min. In [2], the “MIC, Xav” value lay within 0.8 to 1.6 µM. The “MIC, Pss” value in data set [3] fell in the range of 12.5 to 25 µM. In addition, the “MIC, Xf” value in data set [4] was in the range of 6.2 to 12.5 µM. The “MIC, Ea” value in [6] is 6.2 to 12.5 µM. In addition, the “MIC, Xap” value in data set [7] fell in the range of 0.8 to 1.6 µM.

In the case of `CCCC(=O)NCCCC[C@H](NC(=O)[C@@H](NC(=O)[C@H](CCCCN)NC(=O)[C@H](CCCCN)NC(=O)[C@H](Cc1ccccc1)NC(=O)[C@H](CC(C)C)NC(=O)[C@H](CCCCN)NC(=O)[C@H](CCCCN)NC(C)=O)[C@@H](C)CC)C(=O)N[C@@H](CCCCN)C(=O)N[C@@H](Cc1ccc(O)cc1)C(=O)N[C@@H](CC(C)C)C(N)=O` [BP387, reference compound] (Ac-KKLFKKIK(Butyryl)KYL-NH2), in the data set on horse erythrocytes, the “Percent hemolysis at 50 μM” value is reported as 4 ± 0.9%, the “Percent hemolysis at 150 μM” value is listed as 11 ± 5%, the “Percent hemolysis at 250 μM” value came out at 14 ± 0.5% and the “Percent hemolysis at 375 μM” value was found to be 18 ± 1%. In the data set with tobacco leaves, the “Size of the lesions … at 50 μM” value amounted to 0.32 ± 0.07 cm, the “Size of the lesions … at 150 μM” value was determined as 0.84 ± 0.10 cm and the “Size of the lesions … at 250 μM” value is recorded as 0.92 ± 0.01 cm. The “MIC, Xav” value in [2] is 1.6 to 3.1 µM. Also, the “MIC, Pss” value in data set [3] is 3.1 to 6.2 µM. Also, the “MIC, Xf” value in [4] was in the range of 1.6 to 3.1 µM. In data set [5], the “MIC, Psa” value lay in the range of 3.1 to 6.2 µM. In data set [6], the “MIC, Ea” value lay in the range of 3.1 to 6.2 µM. In [7], the “MIC, Xap” value is 3.1 to 6.2 µM.
